Data taken from patent US10745393B2, “Small molecular probes, processes and use thereof” (JAWAHARLAL NEHRU CENTRE FOR ADVANCED SCIENTIFIC RESEARCH, priority 2014, dated 2020).
Like-named read-outs stand apart in the source and are kept apart here. Marks after values point to notes of the source that are not given here.

What was measured:
[1] = Absorption, emission and quantum yield of probes in Tris-HCl buffer without DNA; type: physicochemical; conditions: for ΦF in Buffer: Tris-HCl buffer (100 mM, pH 7.4), absence of DNA; for emission (fluorescence) maxima / absorption maxima: Tris-HCl buffer, no DNA; for emission (fluorescence) maxima: very weak fluorescence; for absorption maxima: probe 10 μM
DNA [2] = assay: Comparison of DNA dyes: sequence selectivity and fluorescence of free/DNA bound dye; type: binding
(D1)mix = assay: Fluorescence response / quantum yield of probes with dsDNA (D1)mix; type: binding; conditions: Tris-HCl buffer (100 mM, pH 7.4)
(GC)10 = assay: Fluorescence response / quantum yield of probes with dsDNA (GC)10; type: binding; conditions: for ΦF with (GC)10: Tris-HCl buffer (100 mM, pH 7.4); for fluorescence change in presence of (GC)10: probe 10 μM
(AT)20 = assay: Fluorescence response / quantum yield of probes with dsDNA (AT)20; type: binding; conditions: for ΦF with (AT)20: Tris-HCl buffer (100 mM, pH 7.4)
DNA [3] = conditions: cited from earlier work; for Fluorescence qauntum yield (ΦF) DNA bound dye: Table 3, superscript a, commercial dyes
cells [4] = conditions: Table 3, commercial dyes; cited from earlier work
cells [5] = conditions: Table 3, commercial dyes; cited from earlier work; remark: listed apart in the source
HEK293 cells = assay: DNase I and RNase digestion studies; type: cell-based; conditions: 2 hours
Protocol: DNase I is known to degrade nuclear DNA while RNase degrades RNA in the cytoplasm by catalyzing phosphodiester bonds cleavage. HEK293 cells are fixed with chilled methanol for about 1 minute at room temperature and permeabilized with 0.1% Triton X-100 in PBS for about 2×5 minutes. After rinsing with PBS twice, for one set of experiments, cells are treated with probe TC (5 μM) for about 15 min at room temperature in three adjacent wells. A total of about 200 μL PBS (as control experiment), about 100 μg/mL DNase I (Sigma), or about 30 μg/ml DNase-Free RNase (GE) is added into the three adjacent wells and incubated at about 37° C. for about 2 hours. For another set of experiments, instead of treating with probe TC, cells are only treated with about 200 μL PBS (as control experiment), about 100 μg/ml DNase I (Sigma), or about 30 μg/mL DNase-Free RNase (GE) by adding into the three adjacent wells and incubating at about 37° C. for about 2 hours. […] After two more washes in PBS with 0.1% Triton X-100, the cover slips are washed in PBS, rinsed in ddH2O and briefly dipped in 100% ethanol. After a quick dry, cover slips are mounted with 70% glycerol. Images are captured using a Carl Zeiss Laser Scanning Microscope (LSM510 META) using an equal exposure time for control, DNase I, and RNase experiments. Experiments are done in duplicate.

[6] = system: ssDNA oligonucleotides (dA10, dT10, dG10 and dC10); assay: Fluorescence emission in presence of ssDNA oligonucleotides; type: binding; conditions: probe 10 μM, Tris-HCl buffer
(AT)10 = assay: Absorption / fluorescence response of probes with dsDNA (AT)10; type: binding; conditions: for fluorescence enhancement in presence of (AT)10: probe 10 μM, DNA 0 to 12 μM
Aβ42 aggregates = Aβ42 aggregates (Homo sapiens, UniProt P05067); assay: Absorption / fluorescence response with Aβ42 fibrillar aggregates; type: binding
Chain of Aβ42 aggregates (P05067 672-713 limits assumed): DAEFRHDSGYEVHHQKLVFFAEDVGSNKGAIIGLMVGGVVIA

[7] = Absorption, emission and quantum yield of probes without Aβ42 aggregates; type: physicochemical
[8] = fluorescence studies with dsDNAs

CCN(CC)c1ccc2cc(/C=C/c3cc[n+](C)c4ccccc34)c(=O)oc2c1 [CL, coumarin lepidine]
ΦF in Buffer [1]: 0.003
emission (fluorescence) maxima [1]: 689 nm
absorption maxima [1]: 519 nm
preferential binding affinity, AT-sites versus GC-sites (DNA [2]; [8]): towards AT-sites than GC-sites
ΦF with (D1)mix ((D1)mix): 0.052
ΦF with (GC)10 ((GC)10): 0.007
ΦF with (AT)20 ((AT)20): 0.102

N=C(N)c1ccc(-c2cc3ccc(C(=N)N)cc3[nH]2)cc1 [DAPI, 4′,6-Diamidino-2-phenylindole]
Fluorescence maxima DNA bound dye (DNA [3]; Table 3, commercial dyes): 450 nm
Fluorescence maxima free dye (DNA [3]; Table 3, commercial dyes): 496 nm
Selectivity (DNA [3]; Table 3, commercial dyes): AT rich
Fluorescence qauntum yield (ΦF) DNA bound dye (DNA [3]): 0.42^a
Cell permeability (cells [4]): Semi-Permeable
Toxicity (cells [5]): Non-toxic

CC[n+]1c(-c2ccccc2)c2cc(N)ccc2c2ccc(N)cc21 [Ethidium bromide]
Cell permeability (cells [4]): Impermeable
Toxicity (cells [5]): Toxic

CN1CCN(c2ccc3[nH]c(-c4ccc5[nH]c(-c6ccc(O)cc6)nc5c4)nc3c2)CC1 [Hoechst33258, Hoechst 33258]
Fluorescence maxima DNA bound dye (DNA [3]): 490/450 nm
Fluorescence maxima free dye (DNA [3]): 490/450 nm
Cell permeability (cells [4]): Permeable
fluorescence nuclear staining after DNase I digestion (HEK293 cells; DNase I about 100 μg/mL): almost completely diminished
fluorescence nuclear staining after RNase digestion (HEK293 cells; RNase about 30 μg/mL): does not affect the fluorescence staining
Toxicity (cells [5]): Non-Toxic

CC[N+](C)(CC)CCC[n+]1c(-c2ccccc2)c2cc(N)ccc2c2ccc(N)cc21.[I-].[I-] [Propidium iodide]
Fluorescence maxima DNA bound dye (DNA [3]; Table 3, commercial dyes): 617 nm
Fluorescence maxima free dye (DNA [3]; Table 3, commercial dyes): 646 nm
Fluorescence qauntum yield (ΦF) DNA bound dye (DNA [3]): 0.13^a
Cell permeability (cells [4]): Impermeable
Toxicity (cells [5]): Toxic
comparative fluorescence response in presence of (AT)20 ((AT)20; dye 10 μM, Tris-HCl buffer): do not show appreciable fluorescence changes

CCN(CC)c1ccc2cc(/C=C/c3sc4ccccc4[n+]3CC)c(=O)oc2c1 [TCE, (E)-3-(2-(N-ethyl-benzo[d]thiazol-2-yl)vinyl)-7-(diethylamino)-2H-chromen-2-one]
preferential binding affinity, AT-sites versus GC-sites (DNA [2]; [8]): towards AT-sites than GC-sites
fluorescence change in presence of (GC)10 ((GC)10): no appreciable change
emission behaviour in presence of ssDNA [6]: do not show significant changes in the emission behaviour
fluorescence enhancement in presence of (AT)10 ((AT)10): 5 fold

C#CC[n+]1c(/C=C/c2cc3ccc(N(CC)CC)cc3oc2=O)sc2ccccc21 [TCP, (E)-3-(2-(N-(prop-2-ynyl)-benzo[d]thiazol-2-yl)vinyl)-7-(diethylamino)-2H-chromen-2-one]
preferential binding affinity, AT-sites versus GC-sites (DNA [2]; [8]): towards AT-sites than GC-sites
fluorescence change in presence of (GC)10 ((GC)10): no change
emission behaviour in presence of ssDNA [6]: do not show significant changes in the emission behaviour
probe concentration at which fluorescence saturates ((AT)10; fixed concentration of DNAs ((AT)10, (D1)mix, (D2)mix), FIG. 32): about 5 μM
fluorescence enhancement in presence of (AT)10 ((AT)10): 6 fold

C[n+]1c(/C=C/c2ccc3ccc4cccc5ccc2c3c45)sc2ccccc21 [TP, thiazole pyrene]
ΦF in Buffer [1]: 0.002
emission (fluorescence) maxima [1]: 623 nm
absorption maxima [1]: 460 nm
preferential binding affinity, AT-sites versus GC-sites (DNA [2]): towards AT-sites than GC-sites
ΦF with (D1)mix ((D1)mix): 0.026
ΦF with (GC)10 ((GC)10): 0.005
change in absorption and colour with Aβ42 aggregates (Aβ42 aggregates): fails to exhibit any detectable change in absorption
change in fluorescence in presence of Aβ42 aggregates (Aβ42 aggregates): does not show any detectable change in the fluorescence behavior
ΦF with (AT)20 ((AT)20): 0.042
emission maximum in absence of Aβ42 aggregates [7]: 623 nm
absorption maximum in absence of Aβ42 aggregates ([7]; pH 7.4): 460 nm
